Assay results reported in patent US20230081426A1, “COMPOUNDS AND METHODS FOR KRAS MODULATION AND INDICATIONS THEREFOR” (Plexxikon Inc., priority 2020, published 2023).

Key:
[1] = molecular target: T1, G12D-mutant human KRAS (amino acid residues 1-188) (Homo sapiens, UniProt P01116, G12D); experiment: KRAS Binding Disruption Assay (AlphaScreen; biotinylated KRpep-2d analogue or RAF1-RBD), G12D; conditions: KRAS G12D; geometric mean; read-out: KRAS GMean IC50 (uM) MUTATION: G12D
T1 construct: G12D or G12C-mutant human KRAS (amino acid residues 1-188) with FLAG tag; made in house; host or cells: E. coli
Procedure, shortened: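 Displacement format with mutant KRAS, biotinylated KRpep-2d analogue or RAF1-RBD (5-20 nM each) at pH 7.5 with 5 mM MgCl2.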

[2] = molecular target: T2, G12V-mutant human KRAS (amino acid residues 1-188) (Homo sapiens, UniProt P01116, G12V); experiment: KRAS Binding Competition Assay (AlphaScreen; biotinylated KRpep-2d analogue), G12V; conditions: geometric mean, read-out: KRAS GMean IC50 (uM) MUTATION: G12V
T2 construct: G12V-mutant human KRAS (amino acid residues 1-188) with FLAG tag was purified from E. coli; made in house; host or cells: E. coli

SMILES	IC50 [1]	IC50 [2]
Cc1ccc2[nH]ncc2c1-c1ccc2c(N3C[C@H]4CC[C@@H](C3)N4)nc(OC[C@@H]3CCCN3C)nc2c1 [P-0161, 4-((1R,5S)-3,8-diazabicyclo[3.2.1]octan-3-yl)-7-(5-methyl-1H-indazol-4-yl)-2-(((S)-1-methylpyrrolidin-2-yl)methoxy)quinazoline]	0.0001 to 10 µM	100 to 1000 µM
Nc1cc(-c2c(F)cc3c(N4C[C@H]5CC[C@@H](C4)N5)nc(OCC45CCCN4CCC5)nc3c2F)ccc1Cl [P-0609, 5-(4-((1R,5S)-3,8-diazabicyclo[3.2.1]octan-3-yl)-6,8-difluoro-2-((tetrahydro-1H-pyrrolizin-7a(5H)-yl)methoxy)quinazolin-7-yl)-2-chloroaniline]	10 to 100 µM	100 to 1000 µM
CN1CCN(CCCC(=O)N2[C@@H]3CC[C@H]2CN(c2nc(OCC45CCCN4CCC5)nc4c(F)c(-c5cc(O)cc6ccccc56)ccc24)C3)CC1 [P-0187, 1-((1R,5S)-3-(8-fluoro-7-(3-hydroxynaphthalen-1-yl)-2-((tetrahydro-1H-pyrrolizin-7a(5H)-yl)methoxy)quinazolin-4-yl)-3,8-diazabicyclo[3.2.1]octan-8-yl)-4-(4-methylpiperazin-1-yl)butan-1-one]	0.0001 to 10 µM	0.0001 to 10 µM
Oc1cc(-c2ccc3c(N4[C@@H]5CC[C@H]4CNC5)nc(Cc4ccncc4)nc3c2)c2ccccc2c1 [P-0301, 4-(4-((1R,5S)-3,8-diazabicyclo[3.2.1]octan-8-yl)-2-(pyridin-4-ylmethyl)quinazolin-7-yl)naphthalen-2-ol]	0.0001 to 10 µM	0.0001 to 10 µM
Cc1cccc(N)c1-c1ccc2c(N3[C@@H]4CC[C@H]3CNC4)nc(OC[C@@H]3CCCN3C)nc2c1 [P-0291, 2-(4-((1R,5S)-3,8-diazabicyclo[3.2.1]octan-8-yl)-2-(((S)-1-methylpyrrolidin-2-yl)methoxy)quinazolin-7-yl)-3-methylaniline]	10 to 100 µM	10 to 100 µM
Fc1cc2c(N3C[C@H]4CC[C@@H](C3)N4)nc(OCC34CCCN3CCC4)nc2c(F)c1-c1c[nH]c2ccc(Cl)cc12 [P-0373, 4-((1R,5S)-3,8-diazabicyclo[3.2.1]octan-3-yl)-7-(5-chloro-1H-indol-3-yl)-6,8-difluoro-2-((tetrahydro-1H-pyrrolizin-7a(5H)-yl)methoxy)quinazoline]	0.0001 to 10 µM	10 to 100 µM
CN1CC[C@@H](NC(=O)N2C3COCC2CN(c2nc(OC[C@@H]4CCCN4C)nc4c(F)c(-c5cc(O)cc6ccccc56)ccc24)C3)C1 [P-0250, 7-(8-fluoro-7-(3-hydroxynaphthalen-1-yl)-2-(((S)-1-methylpyrrolidin-2-yl)methoxy)quinazolin-4-yl)-N-((R)-1-methylpyrrolidin-3-yl)-3-oxa-7,9-diazabicyclo[3.3.1]nonane-9-carboxamide]	0.0001 to 10 µM	0.0001 to 10 µM
CN1CCCC1COc1nc(N2C[C@H]3CC[C@@H](C2)N3C(=O)NC2CN3CCC2CC3)c2ccc(-c3cc(O)cc4ccccc34)c(F)c2n1 (stereo partly drawn) [P-0421, (1R,5S)-3-(8-fluoro-7-(3-hydroxynaphthalen-1-yl)-2-((1-methylpyrrolidin-2-yl)methoxy)quinazolin-4-yl)-N-(quinuclidin-3-yl)-3,8-diazabicyclo[3.2.1]octane-8-carboxamide]	0.0001 to 10 µM	10 to 100 µM
CN1CCC[C@H]1COc1nc(N2C[C@H]3CC[C@@H](C2)N3)c2ccc(-c3ccc4c(c3)NCCO4)cc2n1 [P-0173, 6-(4-((1R,5S)-3,8-diazabicyclo[3.2.1]octan-3-yl)-2-(((S)-1-methylpyrrolidin-2-yl)methoxy)quinazolin-7-yl)-3,4-dihydro-2H-benzo[b][1,4]oxazine]	10 to 100 µM	10 to 100 µM
Cc1cccc2cccc(-c3ccc4c(N5C[C@H]6CC[C@@H](C5)N6)nc(OC[C@@H]5CCCN5C)nc4c3F)c12 [P-0465, 4-((1R,5S)-3,8-diazabicyclo[3.2.1]octan-3-yl)-8-fluoro-7-(8-methylnaphthalen-1-yl)-2-(((S)-1-methylpyrrolidin-2-yl)methoxy)quinazoline]	0.0001 to 10 µM	10 to 100 µM
O=C(Cc1c[nH]c(=O)[nH]c1=O)N1[C@@H]2CC[C@H]1CN(c1nc(OCC34CCCN3CCC4)nc3c(F)c(-c4cc(O)cc5ccccc45)ccc13)C2 [P-0374, 5-(2-((1R,5S)-3-(8-fluoro-7-(3-hydroxynaphthalen-1-yl)-2-((tetrahydro-1H-pyrrolizin-7a(5H)-yl)methoxy)quinazolin-4-yl)-3,8-diazabicyclo[3.2.1]octan-8-yl)-2-oxoethyl)pyrimidine-2,4(1H,3H)-dione]	0.0001 to 10 µM	0.0001 to 10 µM
O=C(Cc1c[nH]cn1)N1[C@@H]2CC[C@H]1CN(c1nc(OCC34CCCN3CCC4)nc3c(F)c(-c4cc(O)cc5ccccc45)ccc13)C2 [P-0188, 1-((1R,5S)-3-(8-fluoro-7-(3-hydroxynaphthalen-1-yl)-2-((tetrahydro-1H-pyrrolizin-7a(5H)-yl)methoxy)quinazolin-4-yl)-3,8-diazabicyclo[3.2.1]octan-8-yl)-2-(1H-imidazol-4-yl)ethan-1-one]	0.0001 to 10 µM	0.0001 to 10 µM
CNC(=O)CCOc1nc(N2C[C@H]3CC[C@@H](C2)N3)c2ccc(-c3cc(O)cc4ccccc34)c(F)c2n1 [P-0616, 3-((4-((1R,5S)-3,8-diazabicyclo[3.2.1]octan-3-yl)-8-fluoro-7-(3-hydroxynaphthalen-1-yl)quinazolin-2-yl)oxy)-N-methylpropanamide]	0.0001 to 10 µM	10 to 100 µM

More lines, now with the values ahead:

IC50 [1]	IC50 [2]	SMILES
10 to 100 µM	10 to 100 µM	CN1CCC[C@H]1COc1nc(N2[C@@H]3CC[C@H]2CN(C(=O)NCC(N)=O)C3)c2ccc(-c3cc(O)cc4ccccc34)cc2n1 [P-0211, (1R,5S)-N-(2-amino-2-oxoethyl)-8-(7-(3-hydroxynaphthalen-1-yl)-2-(((S)-1-methylpyrrolidin-2-yl)methoxy)quinazolin-4-yl)-3,8-diazabicyclo[3.2.1]octane-3-carboxamide]
10 to 100 µM	10 to 100 µM	CN1CCC[C@H]1COc1nc(N2[C@@H]3CC[C@H]2CNC3)c2ccc(-c3cc([N+](=O)[O-])cc4ccccc34)cc2n1 [P-0263, 4-((1R,5S)-3,8-diazabicyclo[3.2.1]octan-8-yl)-2-(((S)-1-methylpyrrolidin-2-yl)methoxy)-7-(3-nitronaphthalen-1-yl)quinazoline]
0.0001 to 10 µM	0.0001 to 10 µM	O=C(O)CNC(=O)N1[C@@H]2CC[C@H]1CN(c1nc(OCC34CCCN3CCC4)nc3cc(-c4cc(O)cc5ccccc45)ccc13)C2 [P-0094, ((1R,5S)-3-(7-(3-hydroxynaphthalen-1-yl)-2-((tetrahydro-1H-pyrrolizin-7a(5H)-yl)methoxy)quinazolin-4-yl)-3,8-diazabicyclo[3.2.1]octane-8-carbonyl)glycine]
10 to 100 µM	10 to 100 µM	CN1CCC[C@H]1COc1nc(N2[C@@H]3CC[C@H]2CN(C(=O)CC2CCCC2O)C3)c2ccc(-c3cc(O)cc4ccccc34)cc2n1 (stereo partly drawn) [P-0196, 2-(2-hydroxycyclopentyl)-1-((1R,5S)-8-(7-(3-hydroxynaphthalen-1-yl)-2-(((S)-1-methylpyrrolidin-2-yl)methoxy)quinazolin-4-yl)-3,8-diazabicyclo[3.2.1]octan-3-yl)ethan-1-one]
0.0001 to 10 µM	0.0001 to 10 µM	O=C([C@@H]1CCNC1)N1[C@@H]2CC[C@H]1CN(c1nc(OCC34CCCN3CCC4)nc3cc(-c4cc(O)cc5ccccc45)ccc13)C2 [P-0111, ((1R,5S)-3-(7-(3-hydroxynaphthalen-1-yl)-2-((tetrahydro-1H-pyrrolizin-7a(5H)-yl)methoxy)quinazolin-4-yl)-3,8-diazabicyclo[3.2.1]octan-8-yl)((R)-pyrrolidin-3-yl)methanone]
10 to 100 µM	10 to 100 µM	CN1CCC[C@H]1COc1nc(N2[C@@H]3CC[C@H]2CN(C(=O)Nc2cccnc2)C3)c2ccc(-c3cc(O)cc4ccccc34)cc2n1 [P-0210, (1R,5S)-8-(7-(3-hydroxynaphthalen-1-yl)-2-(((S)-1-methylpyrrolidin-2-yl)methoxy)quinazolin-4-yl)-N-(pyridin-3-yl)-3,8-diazabicyclo[3.2.1]octane-3-carboxamide]
0.0001 to 10 µM	0.0001 to 10 µM	O=C(NC1CCNC1)N1[C@@H]2CC[C@H]1CN(c1nc(OCC34CCCN3CCC4)nc3cc(-c4cc(O)cc5ccccc45)ccc13)C2 (stereo partly drawn) [P-0097, (1R,5S)-3-(7-(3-hydroxynaphthalen-1-yl)-2-((tetrahydro-1H-pyrrolizin-7a(5H)-yl)methoxy)quinazolin-4-yl)-N-(pyrrolidin-3-yl)-3,8-diazabicyclo[3.2.1]octane-8-carboxamide]
0.0001 to 10 µM	0.0001 to 10 µM	CN1CCC[C@H]1COc1nc(N2C[C@H]3CC[C@@H](C2)N3C(=O)CS(N)(=O)=O)c2ccc(-c3cc(O)cc4ccccc34)cc2n1 [P-0407, 2-((1R,5S)-3-(7-(3-hydroxynaphthalen-1-yl)-2-(((S)-1-methylpyrrolidin-2-yl)methoxy)quinazolin-4-yl)-3,8-diazabicyclo[3.2.1]octan-8-yl)-2-oxoethane-1-sulfonamide]
0.0001 to 10 µM	10 to 100 µM	CN1CCC[C@H]1COc1nc(N2C[C@H]3CC[C@@H](C2)N3C(=O)[C@H]2CCCN2)c2ccc(-c3cc(O)cc4ccccc34)c(F)c2n1 [P-0403, 4-((1R,5S)-8-(D-prolyl)-3,8-diazabicyclo[3.2.1]octan-3-yl)-8-fluoro-7-(3-hydroxynaphthalen-1-yl)-2-(((S)-1-methylpyrrolidin-2-yl)methoxy)quinazoline]
